The source of these data is US20220306640A1, “HYDANTOIN DERIVATIVE” (ONO PHARMACEUTICAL CO., LTD., priority 2019, published 2022).

For one assay, the target named is KDR (Homo sapiens, UniProt P35968). The experiment in a line: Evaluation of kinase selectivity: % inhibition rate of KDR at 1 μmol/L. Format: biochemical. The conditions noted are these: compound at 1 μmol/L. The method, then:
(§1) Biological Example 3: Evaluation of Kinase Selectivity
(§2) % inhibition rate with respect to various kinases (for example KDR etc.) of 1 μmol/L the test compound is measured.
(§3) A general assay condition (substrates, cofactor, ATP concentrations and reaction time etc.) suitable for respective kinase enzyme inhibition activity test is used.
(§4) 1 Prepare the test compounds into 1 mmol/L DMSO solution. 2 Transfer 20 nL of stock to 384 assay plate. Use DMSO as High and Low controls.
(§5) 1 Prepare the 1.3× Enzyme solution containing enzyme, substrate and cofactors. 2 Add 15 μL of 1.3× Enzyme solutions to each well and incubate the plate at room temperature for 30 min. 3 Initiate the reaction by adding 5 μL of 4×ATP solution. The final volume of each well should be 20 μL. 4 Incubate the plate at room temperature for reaction and add 75 μL of stopping buffer (containing 0.5 mol/L EDTA) to terminate the reaction.
(§6) Analyze the sample of each well using EZ reader (PerkinElmer).
(§7) Calculate the % Inhibition using read conversion ratio (CR) following the equation as below.
(§8) Use well treated with DMSO as High Control Use well without enzyme as Low Control

Assay [1] has as its target T1, DDR1 phosphorylation in T-47D (ATCC, HTB-133) cells (Homo sapiens, UniProt Q08345).
T1 construct: host or cells: T-47D
The experiment in a line: Measurement of DDR1 phosphorylation suppression rate by using T-47D cells (p-DDR1 ELISA). The format is cell-based. The conditions noted are these: collagen Type I 10 μg/ml, p-DDR1 (panTyr) ELISA. The essentials:
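T-47D cells were pre-treated with compound 24 h in RPMI/0.1% BSA (0.1% DMSO, 6-point 10-fold series), then stimulated with rat tail collagen I (10 μg/ml) for 24 h at 37 °C. Lysate p-DDR1 (panTyr) was read by ELISA; IC50 derived from % inhibition versus collagen and no-collagen controls.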

Another assay concerns the target ROCK (Homo sapiens, UniProt O75116). Briefly: Evaluation of kinase selectivity: % inhibition rate of ROCK at 1 μmol/L. To be noted: compound at 1 μmol/L; read-out: % inhibition rate of ROCK2. Format: biochemical. The method, then: as §1, §2, §3, §4, §5, §6, §7, §8
The target of another assay is T2, Flt-3 (Homo sapiens, UniProt P36888).
T2 sequence (P36888 27-993): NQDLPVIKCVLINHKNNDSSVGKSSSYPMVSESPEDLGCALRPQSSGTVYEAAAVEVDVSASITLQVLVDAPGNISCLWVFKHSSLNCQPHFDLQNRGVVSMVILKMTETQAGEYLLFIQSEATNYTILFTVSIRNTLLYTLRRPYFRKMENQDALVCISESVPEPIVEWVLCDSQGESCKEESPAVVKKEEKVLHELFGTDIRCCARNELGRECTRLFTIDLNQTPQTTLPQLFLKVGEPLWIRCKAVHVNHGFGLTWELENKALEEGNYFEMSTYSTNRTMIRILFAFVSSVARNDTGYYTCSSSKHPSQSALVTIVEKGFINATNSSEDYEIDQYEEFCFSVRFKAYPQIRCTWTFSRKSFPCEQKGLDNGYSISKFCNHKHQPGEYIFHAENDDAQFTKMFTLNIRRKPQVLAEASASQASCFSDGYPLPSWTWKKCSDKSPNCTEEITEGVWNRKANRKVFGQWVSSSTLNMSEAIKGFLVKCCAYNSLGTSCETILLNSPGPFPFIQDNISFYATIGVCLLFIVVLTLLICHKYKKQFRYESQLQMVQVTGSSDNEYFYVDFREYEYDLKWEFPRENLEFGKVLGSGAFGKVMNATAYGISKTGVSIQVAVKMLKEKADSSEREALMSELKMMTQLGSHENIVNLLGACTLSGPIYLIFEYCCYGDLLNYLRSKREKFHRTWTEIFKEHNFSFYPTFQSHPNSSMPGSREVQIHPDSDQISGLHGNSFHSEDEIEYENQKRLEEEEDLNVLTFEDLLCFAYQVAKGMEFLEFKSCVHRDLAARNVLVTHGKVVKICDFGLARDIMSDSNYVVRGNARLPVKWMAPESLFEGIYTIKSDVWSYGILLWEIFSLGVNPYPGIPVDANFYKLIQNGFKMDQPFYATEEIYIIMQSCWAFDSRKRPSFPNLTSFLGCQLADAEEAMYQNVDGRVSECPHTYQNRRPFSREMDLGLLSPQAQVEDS
The experiment in a line: Evaluation of kinase selectivity: % inhibition rate of Flt-3 at 1 μmol/L. The format is biochemical. To be noted: compound at 1 μmol/L. The method, then: as §1, §2, §3, §4, §5, §6, §7, §8

Chain of ROCK (O75116 whole entry): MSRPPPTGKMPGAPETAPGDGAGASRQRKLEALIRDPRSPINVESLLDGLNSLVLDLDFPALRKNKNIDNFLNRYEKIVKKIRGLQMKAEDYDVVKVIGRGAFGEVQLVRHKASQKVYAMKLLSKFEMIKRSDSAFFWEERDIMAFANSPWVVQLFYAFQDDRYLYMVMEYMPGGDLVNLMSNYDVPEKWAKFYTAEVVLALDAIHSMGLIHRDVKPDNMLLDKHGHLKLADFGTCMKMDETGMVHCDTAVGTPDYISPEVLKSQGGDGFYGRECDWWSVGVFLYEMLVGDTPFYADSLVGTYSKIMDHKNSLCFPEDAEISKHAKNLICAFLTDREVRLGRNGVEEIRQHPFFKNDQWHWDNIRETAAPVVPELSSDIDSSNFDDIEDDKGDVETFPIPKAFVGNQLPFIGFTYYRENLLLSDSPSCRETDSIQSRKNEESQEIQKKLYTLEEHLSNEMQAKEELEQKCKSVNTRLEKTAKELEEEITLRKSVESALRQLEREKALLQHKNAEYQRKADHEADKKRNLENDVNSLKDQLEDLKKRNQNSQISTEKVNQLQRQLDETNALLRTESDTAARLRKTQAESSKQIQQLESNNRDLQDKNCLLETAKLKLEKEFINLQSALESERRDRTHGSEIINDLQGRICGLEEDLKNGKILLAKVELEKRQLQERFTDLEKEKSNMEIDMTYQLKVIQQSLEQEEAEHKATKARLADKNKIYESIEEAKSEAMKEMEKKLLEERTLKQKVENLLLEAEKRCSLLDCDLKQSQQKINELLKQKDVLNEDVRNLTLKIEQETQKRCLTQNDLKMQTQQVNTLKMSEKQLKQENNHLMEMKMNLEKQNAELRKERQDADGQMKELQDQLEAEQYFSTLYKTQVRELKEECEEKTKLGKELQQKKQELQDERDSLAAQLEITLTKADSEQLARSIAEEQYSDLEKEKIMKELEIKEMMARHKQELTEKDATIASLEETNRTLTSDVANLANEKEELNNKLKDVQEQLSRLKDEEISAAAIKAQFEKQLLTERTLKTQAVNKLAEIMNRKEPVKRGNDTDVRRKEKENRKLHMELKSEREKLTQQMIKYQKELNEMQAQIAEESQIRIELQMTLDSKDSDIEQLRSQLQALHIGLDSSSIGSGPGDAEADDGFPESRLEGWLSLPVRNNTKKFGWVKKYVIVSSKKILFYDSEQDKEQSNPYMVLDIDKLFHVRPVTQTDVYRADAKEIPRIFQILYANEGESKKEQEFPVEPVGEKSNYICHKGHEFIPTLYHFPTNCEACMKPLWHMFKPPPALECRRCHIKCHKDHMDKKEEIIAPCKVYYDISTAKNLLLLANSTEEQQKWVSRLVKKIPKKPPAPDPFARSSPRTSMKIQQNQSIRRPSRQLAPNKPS
Chain of KDR (P35968 20-1356, species assumed): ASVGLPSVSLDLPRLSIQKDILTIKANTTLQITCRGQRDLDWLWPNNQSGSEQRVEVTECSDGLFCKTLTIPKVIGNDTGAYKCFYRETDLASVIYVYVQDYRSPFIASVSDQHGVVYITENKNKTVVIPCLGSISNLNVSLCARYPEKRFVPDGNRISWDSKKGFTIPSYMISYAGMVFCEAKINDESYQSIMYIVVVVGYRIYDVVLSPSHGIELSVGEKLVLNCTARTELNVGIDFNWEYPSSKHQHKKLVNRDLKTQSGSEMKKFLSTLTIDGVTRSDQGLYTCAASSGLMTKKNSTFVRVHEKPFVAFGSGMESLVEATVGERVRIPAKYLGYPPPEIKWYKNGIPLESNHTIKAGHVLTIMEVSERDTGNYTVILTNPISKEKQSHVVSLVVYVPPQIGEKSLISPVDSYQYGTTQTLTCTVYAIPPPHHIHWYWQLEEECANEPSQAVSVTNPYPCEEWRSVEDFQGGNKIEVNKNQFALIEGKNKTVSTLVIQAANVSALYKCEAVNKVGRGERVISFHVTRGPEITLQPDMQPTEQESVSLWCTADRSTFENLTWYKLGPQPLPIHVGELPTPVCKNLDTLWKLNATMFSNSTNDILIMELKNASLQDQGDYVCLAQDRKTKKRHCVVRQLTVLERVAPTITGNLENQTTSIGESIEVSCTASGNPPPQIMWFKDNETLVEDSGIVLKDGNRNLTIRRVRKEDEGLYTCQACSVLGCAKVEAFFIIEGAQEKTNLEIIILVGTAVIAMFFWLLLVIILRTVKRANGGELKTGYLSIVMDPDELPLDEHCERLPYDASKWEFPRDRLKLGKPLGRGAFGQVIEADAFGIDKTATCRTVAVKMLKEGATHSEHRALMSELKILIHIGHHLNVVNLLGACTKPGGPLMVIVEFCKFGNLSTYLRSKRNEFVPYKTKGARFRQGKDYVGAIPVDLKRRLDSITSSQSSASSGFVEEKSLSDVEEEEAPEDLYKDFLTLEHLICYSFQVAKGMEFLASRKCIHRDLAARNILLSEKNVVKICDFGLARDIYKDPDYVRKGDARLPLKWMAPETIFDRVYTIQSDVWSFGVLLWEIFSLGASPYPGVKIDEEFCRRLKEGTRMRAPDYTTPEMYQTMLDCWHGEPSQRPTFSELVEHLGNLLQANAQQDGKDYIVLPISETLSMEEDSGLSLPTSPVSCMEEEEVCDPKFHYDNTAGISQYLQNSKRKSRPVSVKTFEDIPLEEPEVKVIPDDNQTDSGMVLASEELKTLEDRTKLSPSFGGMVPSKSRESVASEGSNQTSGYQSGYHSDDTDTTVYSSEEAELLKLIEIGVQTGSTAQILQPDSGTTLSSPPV
T1 sequence (Q08345 19-913): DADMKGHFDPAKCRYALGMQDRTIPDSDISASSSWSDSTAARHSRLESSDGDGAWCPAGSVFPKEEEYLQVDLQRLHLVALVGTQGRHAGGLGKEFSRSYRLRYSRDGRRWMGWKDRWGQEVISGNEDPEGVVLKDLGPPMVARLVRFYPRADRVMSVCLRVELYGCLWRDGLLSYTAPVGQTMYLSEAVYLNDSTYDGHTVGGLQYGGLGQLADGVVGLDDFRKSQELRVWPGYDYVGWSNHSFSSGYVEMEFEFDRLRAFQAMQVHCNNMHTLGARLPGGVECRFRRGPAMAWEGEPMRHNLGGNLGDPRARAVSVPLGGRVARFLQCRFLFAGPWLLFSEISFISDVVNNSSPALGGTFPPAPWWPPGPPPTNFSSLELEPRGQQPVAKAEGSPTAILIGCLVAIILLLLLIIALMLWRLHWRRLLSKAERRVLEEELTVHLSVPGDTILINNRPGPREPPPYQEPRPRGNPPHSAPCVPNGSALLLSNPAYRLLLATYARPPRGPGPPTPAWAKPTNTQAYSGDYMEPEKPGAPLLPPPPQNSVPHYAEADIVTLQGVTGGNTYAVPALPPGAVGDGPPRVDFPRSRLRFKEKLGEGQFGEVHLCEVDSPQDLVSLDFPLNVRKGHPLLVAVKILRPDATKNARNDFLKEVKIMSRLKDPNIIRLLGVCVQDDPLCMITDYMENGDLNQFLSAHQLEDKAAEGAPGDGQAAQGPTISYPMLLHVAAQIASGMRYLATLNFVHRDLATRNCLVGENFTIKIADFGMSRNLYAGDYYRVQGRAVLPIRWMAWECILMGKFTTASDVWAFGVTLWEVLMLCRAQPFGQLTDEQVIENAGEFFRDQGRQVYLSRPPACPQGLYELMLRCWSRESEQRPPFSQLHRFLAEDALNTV

Regarding `Cc1cc(Oc2ccnc(N)n2)ccc1N1C(=O)CN(c2ccc(F)c(OC(F)(F)F)c2)C1=O` [Example 3(110), 3-{4-[(2-amino-4-pyrimidinyl)oxy]-2-methylphenyl}-1-[4-fluoro-3-(trifluoromethoxy)phenyl]-2,4-imidazolidinedione], the inhibition at 1 µM was 4% against KDR, -2% at ROCK and 6% on Flt-3. This compound had a half-maximal inhibitory concentration (IC50) in assay [1] of 1 nM.

As a reminder, the inhibition is the drop in the measured response relative to a control, in per cent. What is called IC50 is the concentration that inhibits the measured activity by half. The low end stands for inhibition by little substance, the high end for a need for much substance.
